*1 amine or outer side, *2 acyl side, *3 side chain or, on linkers, in order; H or OH if unused. Where a SMILES comes first, the peptide text is derived from it. Side-chain parts run from the residue outwards. [ ]: non-standard residue; d: D form. LeuΨ(CH2N)Pro = CC(C)C[C@@H](CN1CCC[C@H]1C(=O)[*:2])N[*:1]; X1 = CC(C)C[C@@H](CN([C@H](C(=O)[*:2])C(C)C)[*:1])N[*:3]
B1: ASPRV1: human retroviral-like aspartic protease 1 (literature) (protein, UniProt Q53RT3 191-326, looked up)
Retroviral-like aspartic …: SMGKGYYLKGKIGKVPVRFLVDSGAQVSVVHPNLWEEVTDGDLDTLQPFENVVKVANGAEMKILGVWDTAVSLGKLKLKAQFLVANASAEEAIIGTDVLQDHNAILDFEHRTCTLKGKKFRLLPVGGSLEDEFDLE

Tests used:
[1] = target: T1, HTLV-2 PR (Human T-cell leukemia virus 2, UniProt P03363); experiment: biochemical
T1 sequence (P03363 447-571): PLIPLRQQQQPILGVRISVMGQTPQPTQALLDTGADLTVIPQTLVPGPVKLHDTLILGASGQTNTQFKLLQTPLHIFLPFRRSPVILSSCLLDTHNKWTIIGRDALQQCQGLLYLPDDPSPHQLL
Description: (§3) The reaction mixtures were prepared to contain 4.8 µL of substrate (in 0.40–0.43 mM final concentration), 0.2 µL of inhibitor, 5 µL of the enzyme, and 10 µL of a 2× incubation buffer. The substrates representing HTLV-2 and HTLV-3 MA/CA cleavage sites were used for HTLV-2 and HTLV-3 PRs, respectively. […] The inhibitors were dissolved in DMSO. Therefore, 0.2 µL of DMSO was added to the control samples.

[2] = target: T2, HTLV-3 PR (Human T-cell leukemia virus 3, UniProt Q4U0X6); experiment: biochemical
T2 sequence (Q4U0X6 431-553): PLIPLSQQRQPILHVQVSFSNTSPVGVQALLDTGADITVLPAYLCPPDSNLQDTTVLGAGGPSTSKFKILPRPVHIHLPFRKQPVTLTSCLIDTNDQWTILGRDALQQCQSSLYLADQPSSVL
Description: as §3

[3] = target: T2, HTLV-3 PR; experiment: Inhibition study with HIV-1 PIs, HTLV-3 PR; format: biochemical; parameters: made in house; host or cells: E. coli BL21(DE3), pET11a; conditions: inhibitor 1 µM final; for loss of activity: substrate HTLV-3 MA/CA 0.40–0.43 mM, DMSO control = 100%, n = 2
Description: (§1) The IB-268 (KTKVL-r-VVQPK) and IB-269 (APQVL-r-PVMHP) reduced peptide bond (-r-)-containing inhibitors, which were synthesized by Dr. Ivo Blaha (Ferring Leciva, Prague, Czech Republic).
(§2) The reaction mixtures were prepared to contain 4.8 µL of substrate (in 0.40–0.43 mM final concentration), 0.2 µL of inhibitor, 5 µL of the enzyme, and 10 µL of a 2× incubation buffer. The substrates representing HTLV-2 and HTLV-3 MA/CA cleavage sites were used for HTLV-2 and HTLV-3 PRs, respectively. In the case of HIV-1 PIs, we applied 100 µM inhibitor stocks, while 0.5–100 µM stocks of IB-268 and IB-269 were used for screening. The inhibitors were dissolved in DMSO. Therefore, 0.2 µL of DMSO was added to the control samples.

[4] = system: HTLV-1 PR; experiment: Inhibition study with HIV-1 PIs, HTLV-1 PR; format: biochemical, human T-cell leukemia virus type 1; conditions: inhibitor 1 µM final
Description: as §1, §2

[5] = target: T1, HTLV-2 PR; experiment: Inhibition study with HIV-1 PIs, HTLV-2 PR; format: biochemical, human T-cell leukemia virus type 2; parameters: made in house; host or cells: E. coli BL21(DE3); conditions: inhibitor 1 µM final; for loss of activity: substrate HTLV-2 MA/CA 0.40–0.43 mM, DMSO control = 100%, n = 2
Description: The inhibitors were dissolved in DMSO.

[6] = system: ATLL cells; parameters: method as in PMID 16174765; conditions: ATLL cells ex vivo; ref [54]; cited from earlier work
[7] = system: NF-κB transcriptional activation; parameters: method as in PMID 18316517; conditions: ATLL cells; ref [55]; cited from earlier work
[8] = system: HTLV-1 PR; parameters: method as in 2 sources, ref [41] = [41]; PMID 15158589; doi:10.1016/j.jviromet.2004.03.001; 41. Bagossi P. Kádas J. Miklóssy G. Boross P. Weber I.T. Tözsér J. Development of a microtiter plate fluorescent assay for inhibition studies on the HTLV-1 and HIV-1 proteinases J. Virol. Methods 2004 ||| ref [28] = [28]; PMID 15102858; doi:10.1074/jbc.M401868200; 28. Kádas J. Weber I.T. Bagossi P. Miklóssy G. Boross P. Oroszlan S. Tözsér J. Narrow substrate specificity and sensitivity toward ligand-binding site mutations of human T-cell leukemia virus type 1 p; conditions: ref [28]; cited from earlier work
Description: (a) Comparison of relative activities determined in the presence of HIV-1 PIs applied in a 1-µM final concentration. For control measurements, reaction mixtures contained no inhibitor. Activity determined in the presence of DMSO was considered to be 100%. Error bars represent SD (n = 2). […] We repeated these experiments in our system for HTLV-2 and HTLV-3 PRs.

[9] = ASPRV1; ref [51]; cited from earlier work
Description: The dependence of enzyme activity on pH was studied in a 4.5–8.0 range. […] Our results imply that the optimal pH of HTLV-1 PR is higher than it was determined previously by Ha et al. (pH 5.2–5.3). The optimal pH determined for HTLV PRs is similar to the slightly acidic pH optimum of retroviral and retroviral-like proteases, including the HIV-1 PR (pH 4.0–6.0 range), the BLV PR (pH 4.0–6.5 range), ...

Molecule | Ki [1] [nM] | Ki [2] [nM] | inhibitory effect (in words) [3] | loss of activity [3] [%] | inhibitory effect (in words) [4] | inhibitory effect (in words) [5] | loss of activity [5] [%] | also measured
CC(C)C[C@@H](CN[C@H](C(=O)N[C@H](C(=O)N[C@@H](CCC(N)=O)C(=O)N1CCC[C@H]1C(=O)N[C@@H](CCCCN)C(=O)O)C(C)C)C(C)C)NC(=O)[C@@H](NC(=O)[C@H](CCCCN)NC(=O)[C@@H](NC(=O)[C@@H](N)CCCCN)[C@@H](C)O)C(C)C [IB-268] (H-[X1]([Val-Lys-Thr-Lys])VQPK-OH) | 37 | 214 |  |  |  |  |  | 
CSCC[C@H](NC(=O)[C@@H](NC(=O)[C@@H]1CCCN1C[C@H](CC(C)C)NC(=O)[C@@H](NC(=O)[C@H](CCC(N)=O)NC(=O)[C@@H]1CCCN1C(=O)[C@H](C)N)C(C)C)C(C)C)C(=O)N[C@@H](Cc1c[nH]cn1)C(=O)N1CCC[C@H]1C(=O)O [IB-269] (H-APQV[LeuΨ(CH2N)Pro]VMHP-OH) | 12 | 14 |  |  |  |  |  | 
CC(C)c1nc(CN(C)C(=O)N[C@H](C(=O)N[C@@H](Cc2ccccc2)C[C@H](O)[C@H](Cc2ccccc2)NC(=O)OCc2cncs2)C(C)C)cs1 [ritonavir] |  |  | did not inhibit | < 50 | not an effective inhibitor | did not inhibit | < 50 | anti-leukemic activity [6]: anti-leukemic activity against ATLL cells ex vivo; inhibition of NF-κB transcriptional activation [7]: ritonavir-dependent inhibition of NF-κB transcriptional activation
CC(C)(C)NC(=O)[C@@H]1CN(Cc2cccnc2)CCN1C[C@@H](O)C[C@@H](Cc1ccccc1)C(=O)N[C@H]1c2ccccc2C[C@H]1O [indinavir] |  |  | highest inhibition | < 50 | highest inhibition | highest inhibition | < 50 | decrease of HTLV-1 PR activity ([4]; DMSO control = 100%, n = 2): ~ 50%; inhibition of wild-type HTLV-1 PR (in words) [8]: relatively good inhibitors
B1 |  |  |  |  |  |  |  | pH optimum [9]: 6.27 ± 0.02
